Patent US12292380B2, “Integrated microfluidic device for capture and spectroscopic characterization of live cells under various treatment conditions” (CORNELL UNIVERSITY, priority 2018, dated 2025)

What was measured:
A431 cells [1] = assay: MEIRS measurement of the response of A431 cells to epidermal growth factor, PCA of reflectance spectra; type: cell-based; details: 40 nM EGF injected at t=240 min, time resolution 1 min
Description: (§1) The following method is used for monitoring a drug's effect of the cells. The method can be implemented using the same or similar detection unit 100, detection device 300, and detection system 10, as described above and shown in FIGS. 1 and 2-12. First, the metasurface 102 is assembled with the microfluidic chamber 302, and the cells are seeded on the metasurface 102 in culture media. The cells are then incubated until they are well-adhered on the metasurface 102. The metasurface 102 (with cells) is then transferred to a FTIR microscope 20 for continuous collection of IR spectra. […]
Referring briefly to FIG. 25, there are shown graphs of the resulting PCA scores/loadings obtained from A431 cells with the addition of epidermal growth factor (EGF). […] Specifically, 40 nM EGF was injected to the microfluidic measurement chamber 302 at t=240 min., while continuously monitored with time resolution of Δt=1 min. The measured reflectance spectra were analyzed using PCA. […] Although the biological interpretation of such signal is still not clear, it is hypothesized that the measured response corresponds to at least two processes in the cell, likely related to the cells' cytoskeletal reorganization in response of EGF.

A431 cells [2] = assay: MEIRS monitoring of trypsinization (detachment of adherent cells from the metasurface), PCA of reflection spectra; type: cell-based; details: 0.025% trypsin at t=66 min, between t=66 min and t=100 min, time resolution 1 min
Description: as §1, with “spectra. Background spectra of the cells are collected for some time, before the drug to be tested is introduced to the cells via a microfluidic pump (such as a syringe pump 20 like that shown in FIG. 12).” for “spectra.”
Referring briefly to FIG. 24, there are shown contrast microscopy images of A431 cells on the metasurface 102 and graphs of the resulting PCA scores/loadings obtained from their spectra. The most robust adhesion-related effects, such as trypsinization (i.e., the detachment of adherent cells from the metasurface 102 by application of trypsin, a proteolytic enzyme that breaks down adhesion proteins), can be easily detected using MEIRS. […] Reflection spectra were analyzed using principal components analysis (PCA). […]

Substance | PC1 score response to EGF (A431 cells [1]) | time for PC2 score to recover to the baseline level before the EGF injection (A431 cells [1]) | time evolution of the PC1 score (cell detachment from the metasurface) (A431 cells [2])
epidermal growth factor (NSDSECPLSHDGYCLHDGVCMYIEALDKYACNCVVGYIGERCQYRDLKWWELR; Epidermal growth factor; UniProt P01133 971-1023, looked up) [EGF, epidermal growth factor (EGF)] | permanent change to the cell | about 200 min | –
trypsin | – | – | rapid detachment of the cells
